Assay results published in PubChem BioAssay (NCI).
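Interpolation was linear, between the two tested concentrations surrounding the appropriate level; five concentrations were tested over 48 hours in 96-well plates. Abbreviation: GI50, concentration required for 50% inhibition of growth. TGI: concentration producing complete growth inhibition.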

Tests used:
Test in all cases: NCI-60 cell line screen, 48 h
HL-60(TB) leukemia = test system: HL-60(TB) leukemia
MDA-MB-435 = test system: MDA-MB-435
SK-OV-3 ovarian = test system: SK-OV-3 ovarian
ACHN renal = test system: ACHN renal
HS 578T breast = test system: HS 578T breast
A498 renal = test system: A498 renal
EKVX NSCLC = test system: EKVX NSCLC
OVCAR-3 ovarian = test system: OVCAR-3 ovarian
NCI/ADR-RES ovarian = test system: NCI/ADR-RES ovarian
TK-10 renal = test system: TK-10 renal
BT-549 breast = test system: BT-549 breast
CAKI-1 renal = test system: CAKI-1 renal
RXF 393 renal = test system: RXF 393 renal
SK-MEL-5 melanoma = test system: SK-MEL-5 melanoma
COLO 205 colon = test system: COLO 205 colon
HOP-62 NSCLC = test system: HOP-62 NSCLC
HOP-92 NSCLC = test system: HOP-92 NSCLC
NCI-H226 lung = test system: NCI-H226 lung
SW-620 colon = test system: SW-620 colon
PC-3 prostate = test system: PC-3 prostate
SF-295 CNS = test system: SF-295 CNS
OVCAR-4 ovarian = test system: OVCAR-4 ovarian
SR leukemia = test system: SR leukemia
MDA-MB-231 breast = test system: MDA-MB-231 breast
UO-31 renal = test system: UO-31 renal
786-0 renal = test system: 786-0 renal
M14 melanoma = test system: M14 melanoma
U251 CNS = test system: U251 CNS
RPMI-8226 leukemia = test system: RPMI-8226 leukemia
HCC-2998 colon = test system: HCC-2998 colon
MDA-MB-468 breast = test system: MDA-MB-468 breast
SK-MEL-28 melanoma = test system: SK-MEL-28 melanoma
SNB-75 CNS = test system: SNB-75 CNS
OVCAR-8 ovarian = test system: OVCAR-8 ovarian
HT29 colon = test system: HT29 colon
IGROV1 ovarian = test system: IGROV1 ovarian
DU-145 prostate = test system: DU-145 prostate
NCI-H460 lung = test system: NCI-H460 lung
CCRF-CEM leukemia = test system: CCRF-CEM leukemia
SF-539 CNS = test system: SF-539 CNS
SK-MEL-2 melanoma = test system: SK-MEL-2 melanoma
UACC-257 melanoma = test system: UACC-257 melanoma
A549 NSCLC = test system: A549 NSCLC
SF-268 CNS = test system: SF-268 CNS
KM12 colon = test system: KM12 colon
HCT-15 colon = test system: HCT-15 colon
HCT-116 colon = test system: HCT-116 colon
T-47D breast = test system: T-47D breast
LOX IMVI melanoma = test system: LOX IMVI melanoma
MCF7 breast = test system: MCF7 breast
MALME-3M melanoma = test system: MALME-3M melanoma
NCI-H23 lung = test system: NCI-H23 lung
UACC-62 melanoma = test system: UACC-62 melanoma
K-562 leukemia = test system: K-562 leukemia
SN12C renal = test system: SN12C renal
MOLT-4 leukemia = test system: MOLT-4 leukemia
OVCAR-5 ovarian = test system: OVCAR-5 ovarian
NCI-H522 lung = test system: NCI-H522 lung
SNB-19 CNS = test system: SNB-19 CNS

COc1sc(/C=N/NC(=O)c2[nH]c3ccc(Br)cc3c2-c2ccccc2)cc1Cl
GI50 (HL-60(TB) leukemia): 1.52 µM | TGI (HL-60(TB) leukemia): 5.23 µM | GI50 (MDA-MB-435): 0.346 µM | TGI (MDA-MB-435): 2.6 µM | GI50 (SK-OV-3 ovarian): 0.741 µM | TGI (SK-OV-3 ovarian): 22.8 µM | GI50 (ACHN renal): 2.38 µM | TGI (ACHN renal): > 100 µM | GI50 (HS 578T breast): 1.73 µM | TGI (HS 578T breast): 44.4 µM | GI50 (A498 renal): 11.1 µM | TGI (A498 renal): 53.7 µM | GI50 (EKVX NSCLC): 4.49 µM | TGI (EKVX NSCLC): > 100 µM | GI50 (OVCAR-3 ovarian): 0.607 µM | TGI (OVCAR-3 ovarian): 11.1 µM | GI50 (NCI/ADR-RES ovarian): 0.649 µM | TGI (NCI/ADR-RES ovarian): 4.58 µM | GI50 (TK-10 renal): 4.48 µM | TGI (TK-10 renal): > 100 µM | GI50 (BT-549 breast): 3.72 µM | TGI (BT-549 breast): 8.48 µM | GI50 (CAKI-1 renal): 0.798 µM | TGI (CAKI-1 renal): 94.6 µM | GI50 (RXF 393 renal): 0.935 µM | TGI (RXF 393 renal): > 100 µM | GI50 (SK-MEL-5 melanoma): 1.73 µM | TGI (SK-MEL-5 melanoma): 4.36 µM | GI50 (COLO 205 colon): 0.294 µM | TGI (COLO 205 colon): 0.728 µM | GI50 (HOP-62 NSCLC): 1 µM | TGI (HOP-62 NSCLC): 13.1 µM | GI50 (HOP-92 NSCLC): 9.72 µM | TGI (HOP-92 NSCLC): > 100 µM | GI50 (NCI-H226 lung): 2.12 µM | TGI (NCI-H226 lung): 8.3 µM | GI50 (SW-620 colon): 2.88 µM | TGI (SW-620 colon): > 100 µM | GI50 (PC-3 prostate): 3.06 µM | TGI (PC-3 prostate): > 100 µM | GI50 (SF-295 CNS): 1.2 µM | TGI (SF-295 CNS): 27.2 µM | GI50 (OVCAR-4 ovarian): 6.38 µM | TGI (OVCAR-4 ovarian): > 100 µM | GI50 (SR leukemia): 1 µM | TGI (SR leukemia): > 100 µM | GI50 (MDA-MB-231 breast): 3.23 µM | TGI (MDA-MB-231 breast): 43.1 µM | GI50 (UO-31 renal): 2.21 µM | TGI (UO-31 renal): > 100 µM | GI50 (786-0 renal): 2.78 µM | TGI (786-0 renal): 41.9 µM | GI50 (M14 melanoma): 2.12 µM | TGI (M14 melanoma): > 100 µM | GI50 (U251 CNS): 3.39 µM | TGI (U251 CNS): 86.6 µM | GI50 (RPMI-8226 leukemia): 1.96 µM | TGI (RPMI-8226 leukemia): > 100 µM | GI50 (HCC-2998 colon): 3.74 µM | TGI (HCC-2998 colon): > 100 µM | GI50 (MDA-MB-468 breast): 0.895 µM | TGI (MDA-MB-468 breast): 5.54 µM | GI50 (SK-MEL-28 melanoma): 3.26 µM | TGI (SK-MEL-28 melanoma): > 100 µM | GI50 (SNB-75 CNS): 0.74 µM | TGI (SNB-75 CNS): 26.9 µM | GI50 (OVCAR-8 ovarian): 0.69 µM | TGI (OVCAR-8 ovarian): 11.5 µM | GI50 (HT29 colon): 1.07 µM | TGI (HT29 colon): 7.46 µM | GI50 (IGROV1 ovarian): 3.05 µM | TGI (IGROV1 ovarian): 30.7 µM | GI50 (DU-145 prostate): 3.23 µM | TGI (DU-145 prostate): 32.5 µM | GI50 (NCI-H460 lung): 2.79 µM | TGI (NCI-H460 lung): 10.7 µM | GI50 (CCRF-CEM leukemia): 3.09 µM | TGI (CCRF-CEM leukemia): > 100 µM | GI50 (SF-539 CNS): 1.23 µM | TGI (SF-539 CNS): 4.55 µM | GI50 (SK-MEL-2 melanoma): 1.54 µM | TGI (SK-MEL-2 melanoma): > 100 µM | GI50 (UACC-257 melanoma): 5.78 µM | TGI (UACC-257 melanoma): > 100 µM | GI50 (A549 NSCLC): 2.64 µM | TGI (A549 NSCLC): > 100 µM | GI50 (SF-268 CNS): 2.67 µM | TGI (SF-268 CNS): > 100 µM | GI50 (KM12 colon): 2.79 µM | TGI (KM12 colon): > 100 µM | GI50 (HCT-15 colon): 2.96 µM | TGI (HCT-15 colon): > 100 µM | GI50 (HCT-116 colon): 1.74 µM | TGI (HCT-116 colon): 10.1 µM | GI50 (T-47D breast): 6.62 µM | TGI (T-47D breast): > 100 µM | GI50 (LOX IMVI melanoma): 1.61 µM | TGI (LOX IMVI melanoma): 40.7 µM | GI50 (MCF7 breast): 0.447 µM | TGI (MCF7 breast): > 100 µM | GI50 (MALME-3M melanoma): 3.98 µM | TGI (MALME-3M melanoma): > 100 µM | GI50 (NCI-H23 lung): 3.72 µM | TGI (NCI-H23 lung): > 100 µM | GI50 (UACC-62 melanoma): 0.696 µM | TGI (UACC-62 melanoma): > 100 µM | GI50 (K-562 leukemia): 0.502 µM | TGI (K-562 leukemia): > 100 µM | GI50 (SN12C renal): 3.16 µM | TGI (SN12C renal): > 100 µM | GI50 (MOLT-4 leukemia): 3.3 µM | TGI (MOLT-4 leukemia): 26.7 µM | GI50 (OVCAR-5 ovarian): 3.28 µM | TGI (OVCAR-5 ovarian): 72.9 µM | GI50 (NCI-H522 lung): 0.2 µM | TGI (NCI-H522 lung): 0.566 µM | GI50 (SNB-19 CNS): 4.22 µM | TGI (SNB-19 CNS): > 100 µM
